Source: ChEMBL document CHEMBL1201862, “PubChem BioAssay data set” (2004)
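Five compound concentrations were applied to cells in 96-well plates for 48 hours; endpoints were derived by simple linear interpolation of the resulting dose-response curve. Abbreviation: GI50, concentration required for 50% inhibition of growth.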 Calls of active or inactive are those of the source. Cut-off read from the data, not from the text of the source: active = GI50 up to about 1.1 µM and inactive = higher.

How the values were obtained:
Test in all cases: NCI tumour cell line growth inhibition, 48 h
[1] = system: OVCAR-8
[2] = system: TK-10
[3] = system: CAKI-1
[4] = system: NCI/ADR-RES
[5] = system: A549
[6] = system: EKVX
[7] = system: NCI-H522
[8] = system: MCF7
[9] = system: HCT-15
[10] = system: SK-MEL-5
[11] = system: OVCAR-5
[12] = system: MDA-MB-435
[13] = system: COLO 205
[14] = system: SK-OV-3
[15] = system: SNB-75
[16] = system: RXF 393
[17] = system: UO-31
[18] = system: MDA-N
[19] = system: UACC-62
[20] = system: SF-539
[21] = system: HOP-92
[22] = system: HOP-62
[23] = system: U-251
[24] = system: NCI-H23
[25] = system: T47D
[26] = system: IGROV-1
[27] = system: PC-3
[28] = system: M14
[29] = system: ACHN
[30] = system: SNB-19
[31] = system: MOLT-4
[32] = system: 786-0
[33] = system: RPMI-8226
[34] = system: OVCAR-3
[35] = system: HCT-116
[36] = system: Malme-3M
[37] = system: LOX IMVI
[38] = system: KM12
[39] = system: SR
[40] = system: SW-620
[41] = system: UACC-257
[42] = system: SK-MEL-2
[43] = system: SF-295
[44] = system: HCC 2998
[45] = system: A498
[46] = system: SF-268
[47] = system: OVCAR-4
[48] = system: BT-549
[49] = system: Hs-578T
[50] = system: HT-29
[51] = system: DU-145
[52] = system: HL-60
[53] = system: MDA-MB-231
[54] = system: SN12C
[55] = system: NCI-H226
[56] = system: SK-MEL-28
[57] = system: NCI-H460
[58] = system: K562
[59] = system: CCRF-CEM

O=c1ccc2ccc(S)cc2o1
GI50 [1]: > 100 µM (inactive) | GI50 [2]: 92.5 µM (inactive) | GI50 [3]: > 100 µM (inactive) | GI50 [4]: > 100 µM (inactive) | GI50 [5]: > 100 µM (inactive) | GI50 [6]: > 100 µM (inactive) | GI50 [7]: 87.3 µM (inactive) | GI50 [8]: > 100 µM (inactive) | GI50 [9]: > 100 µM | GI50 [10]: > 100 µM (inactive) | GI50 [11]: > 100 µM (inactive) | GI50 [12]: > 100 µM (inactive) | GI50 [13]: > 100 µM (inactive) | GI50 [14]: > 100 µM (inactive) | GI50 [15]: > 100 µM (inactive) | GI50 [16]: > 100 µM (inactive) | GI50 [17]: > 100 µM (inactive) | GI50 [18]: > 100 µM (inactive) | GI50 [19]: > 100 µM (inactive) | GI50 [20]: > 100 µM (inactive) | GI50 [21]: > 100 µM (inactive) | GI50 [22]: > 100 µM (inactive) | GI50 [23]: > 100 µM (inactive) | GI50 [24]: > 100 µM (inactive) | GI50 [25]: > 100 µM (inactive) | GI50 [26]: > 100 µM (inactive) | GI50 [27]: > 100 µM (inactive) | GI50 [28]: > 100 µM (inactive) | GI50 [29]: > 100 µM (inactive) | GI50 [30]: > 100 µM (inactive) | GI50 [31]: 42 µM (inactive) | GI50 [32]: > 100 µM (inactive) | GI50 [33]: 99.8 µM (inactive) | GI50 [34]: > 100 µM (inactive) | GI50 [35]: > 100 µM (inactive) | GI50 [36]: > 100 µM (inactive) | GI50 [37]: > 100 µM (inactive) | GI50 [38]: > 100 µM (inactive) | GI50 [39]: > 100 µM (inactive) | GI50 [40]: > 100 µM (inactive) | GI50 [41]: > 100 µM (inactive) | GI50 [42]: > 100 µM (inactive) | GI50 [43]: > 100 µM (inactive) | GI50 [44]: > 100 µM (inactive) | GI50 [45]: > 100 µM (inactive) | GI50 [46]: > 100 µM (inactive) | GI50 [47]: > 100 µM (inactive) | GI50 [48]: > 100 µM (inactive) | GI50 [49]: > 100 µM (inactive) | GI50 [50]: > 100 µM (inactive) | GI50 [51]: > 100 µM (inactive) | GI50 [52]: > 100 µM (inactive) | GI50 [53]: > 100 µM (inactive) | GI50 [54]: > 100 µM (inactive) | GI50 [55]: > 100 µM (inactive) | GI50 [56]: > 100 µM (inactive) | GI50 [57]: > 100 µM (inactive)

CC1(C)OC(=S)N(c2ccccc2)C12C=Cc1ccccc1O2 (stereo not given)
GI50 [1]: > 100 µM (inactive) | GI50 [2]: > 100 µM (inactive) | GI50 [3]: > 100 µM (inactive) | GI50 [4]: 53.5 µM (inactive) | GI50 [5]: > 100 µM (inactive) | GI50 [6]: 53.5 µM (inactive) | GI50 [7]: 20.2 µM (inactive) | GI50 [8]: 61.1 µM (inactive) | GI50 [9]: 58.9 µM | GI50 [10]: 56.5 µM (inactive) | GI50 [11]: > 100 µM (inactive) | GI50 [12]: 36.4 µM (inactive) | GI50 [13]: 63.4 µM (inactive) | GI50 [14]: 16.6 µM (inactive) | GI50 [15]: 49.2 µM (inactive) | GI50 [16]: > 100 µM (inactive) | GI50 [17]: 45.6 µM (inactive) | GI50 [18]: 39.5 µM (inactive) | GI50 [19]: 75.5 µM (inactive) | GI50 [21]: 88.3 µM (inactive) | GI50 [22]: > 100 µM (inactive) | GI50 [23]: > 100 µM (inactive) | GI50 [24]: 41 µM (inactive) | GI50 [25]: 20.5 µM (inactive) | GI50 [26]: 41.6 µM (inactive) | GI50 [27]: 41.7 µM (inactive) | GI50 [28]: 90.6 µM (inactive) | GI50 [29]: > 100 µM (inactive) | GI50 [30]: > 100 µM (inactive) | GI50 [31]: 22.5 µM (inactive) | GI50 [32]: > 100 µM (inactive) | GI50 [33]: 24.8 µM (inactive) | GI50 [34]: > 100 µM (inactive) | GI50 [35]: 36.6 µM (inactive) | GI50 [58]: 29.1 µM (inactive) | GI50 [37]: > 100 µM (inactive) | GI50 [38]: 35 µM (inactive) | GI50 [39]: 4.26 µM (inactive) | GI50 [40]: 72.3 µM (inactive) | GI50 [41]: 42.1 µM (inactive) | GI50 [42]: > 100 µM (inactive) | GI50 [43]: 73.5 µM (inactive) | GI50 [44]: > 100 µM (inactive) | GI50 [45]: > 100 µM (inactive) | GI50 [46]: > 100 µM (inactive) | GI50 [59]: 27.8 µM (inactive) | GI50 [47]: 33.4 µM (inactive) | GI50 [48]: 79.3 µM (inactive) | GI50 [49]: > 100 µM (inactive) | GI50 [50]: 56.6 µM (inactive) | GI50 [51]: > 100 µM (inactive) | GI50 [52]: 8.59 µM (inactive) | GI50 [53]: > 100 µM (inactive) | GI50 [54]: > 100 µM (inactive) | GI50 [55]: 85.3 µM (inactive) | GI50 [56]: > 100 µM (inactive) | GI50 [57]: 71.6 µM (inactive)

C=C(C)C1CC2(C)C(C)CC(O)CC2C(OC(=O)C=C(C)C)C1O (stereo not given)
GI50 [1]: 40.6 µM (inactive) | GI50 [2]: 49.2 µM (inactive) | GI50 [3]: 43.3 µM (inactive) | GI50 [4]: 30.5 µM (inactive) | GI50 [5]: 29.4 µM (inactive) | GI50 [6]: 34.8 µM (inactive) | GI50 [7]: 24.3 µM (inactive) | GI50 [8]: 29.6 µM (inactive) | GI50 [9]: 27.3 µM | GI50 [10]: 19.2 µM (inactive) | GI50 [11]: 31.3 µM (inactive) | GI50 [12]: 38.1 µM (inactive) | GI50 [13]: 16.3 µM (inactive) | GI50 [14]: 58.6 µM (inactive) | GI50 [15]: 11.6 µM (inactive) | GI50 [16]: 26.9 µM (inactive) | GI50 [17]: 24.4 µM (inactive) | GI50 [18]: 36.4 µM (inactive) | GI50 [19]: 71.9 µM (inactive) | GI50 [20]: 30.9 µM (inactive) | GI50 [21]: 23.2 µM (inactive) | GI50 [23]: 40 µM (inactive) | GI50 [24]: 30.3 µM (inactive) | GI50 [25]: 31.8 µM (inactive) | GI50 [26]: 40.5 µM (inactive) | GI50 [27]: 37.6 µM (inactive) | GI50 [28]: 33.7 µM (inactive) | GI50 [29]: 18.6 µM (inactive) | GI50 [30]: 22.2 µM (inactive) | GI50 [31]: 18.1 µM (inactive) | GI50 [32]: > 100 µM (inactive) | GI50 [35]: 52.7 µM (inactive) | GI50 [36]: 45.6 µM (inactive) | GI50 [58]: 32.8 µM (inactive) | GI50 [37]: 55 µM (inactive) | GI50 [38]: 33.7 µM (inactive) | GI50 [39]: 17.8 µM (inactive) | GI50 [40]: > 10 µM (inactive) | GI50 [41]: 53.1 µM (inactive) | GI50 [42]: 61.5 µM (inactive) | GI50 [43]: 23 µM (inactive) | GI50 [44]: 43.8 µM (inactive) | GI50 [45]: 65.5 µM (inactive) | GI50 [46]: 23.7 µM (inactive) | GI50 [59]: 30.8 µM (inactive) | GI50 [47]: 29.5 µM (inactive) | GI50 [48]: 42.4 µM (inactive) | GI50 [49]: 27.1 µM (inactive) | GI50 [50]: 24.4 µM (inactive) | GI50 [51]: 60.5 µM (inactive) | GI50 [52]: 23 µM (inactive) | GI50 [53]: 24.5 µM (inactive) | GI50 [54]: 30.9 µM (inactive) | GI50 [55]: 0.933 µM (active) | GI50 [56]: 51.2 µM (inactive) | GI50 [57]: 22.8 µM (inactive)
